Laboratory results as given in patent publication EP3811940B1, “SUBSTITUTED 4,5'-BITHIAZOLES AS INHIBITORS OF THE HUMAN DNA TOPOISOMERASE II” (Kemijski Institut, priority 2019, dated 2021).
Where two headings read alike, the source gives them in different places.

Key:
[1] = molecular target: T1, human topo IIα (Homo sapiens, UniProt P11388); experiment: HTS relaxation assay of human topo IIα; format: biochemical; details: screening at 7.8, 31.5, 125 and 500 µM
T1 construct: purchased Inspiralis (Norwich, UK)
Experimental: The 14 selected compounds from the class of substituted 4,5'-bithiazoles were experimentally assayed if they inhibit catalytic activity of human topo IIα using an established high-throughput screening (HTS) relaxation assay for human topo IIα [24].
The HTS assays primarily served to select compounds for further evaluation.
Plate was rehydrated using wash buffer (20 mM Tris-HCl (pH = 7.6), 137 mM NaCl, 0.005 % (w/v) BSA, 0.05 % (v/v) TWEEN-20®) and biotinylated oligonucleotide was immobilized onto the wells. Next, the excess oligonucleotide was washed off with wash buffer. Enzyme assay was carried out in reaction volume of 30 µL using 0.75 µg supercoiled plasmid pNO1 as a substrate and human topo IIα. Enzyme was diluted to the appropriate concentration with dilution buffer comprised of 50 mM Tris-Hcl (pH = 7.5), 100 mM NaCl, 1 mM DTT, 0.5 mM EDTA, 50 % (v/v) glycerol and 50 µg/mL albumin. Tested compounds (0.3 µL) were added as a stock solution in DMSO and final concentration of DMSO was 1 %, respectively. Reactions were incubated at 37 °C for 30 min, and TF buffer (50 mM NaOAc (pH = 5.0), 50 mM NaCl, 50 mM MgCl2) was added to the wells and incubated at room temperature for additional 30 min to allow the triplex biotin-oligonucleotid-plasmid formation. To eliminate the aggregation and non-specific inhibition a surfactant (TWEEN-20®) was added to the reaction mixture. Unbound plasmid was washed off with TF buffer and stained with the DNA-detection Dye in the T10 buffer (10 mM Tris-HCl (pH = 8) and 1 mM EDTA) was added. After mixing, fluorescence was read using Tecan fluorimeter (Excitation: 485 nm and Emission: 535 nm). Screening was performed at the inhibitor concentrations of 7.8, 31.5, 125 and 500 µM. IC50 values were calculated using GraphPad Prism 6.0 software and represent the concentrations of inhibitors where residual activity of the enzyme was 50 % [24].

[2] = solubility in the cell growth media; format: physicochemical; details: result in words
[3] = test system: MCF-7 cells; experiment: MTS cytotoxicity assay, MCF-7; format: cell-based, human; details: for effect on the tested cell lines: initial screening, 24 h, 100 µM for compound 6, 200 µM for 8 and 11, result in words; for EC50: Homo sapiens, interval in brackets
Excerpt: (§1) We determined the cytotoxicity of the tested compounds on human breast cancer MCF-7 and human hepatocellular carcinoma HepG2 cancer cell lines using MTS assay. Both selected human cancer cell lines are representative and well-established systems for cell-based evaluation of potential anticancer compounds. Etoposide was again used as a positive control (PC).
(§2) In the first step we performed the initial screening of compounds 1-14 at one concentration. […] Exponentially growing cells were exposed to all compounds for 24 h and the results are represented in Figure 3A.
(§3) In vitro cytotoxicity of investigated compounds was evaluated in two human cancer cell lines: the […] cell lines. The HepG2 cells (ATCC) were cultivated at 37 °C and 5 % CO2 in MEME medium (M2414, Sigma) supplemented with 10 % FBS, 2 mM L-Glutamine, 1 % NEAA, 2.2 g/L NaHCO3, 1 mM sodium pyruvate and 100 IU/mL penicillin/ streptomycin and MCF-7 (ATCC) were cultivated in Eagle's MEM medium (M5650, Sigma), supplemented with 10 % fetal bovine serum, 2 mM glutamine, and 100 IU/mL penicillin/streptomycin. After the exposure to the tested compounds the viability of HepG2 and MCF-7 cells was determined by MTS tetrazolium reduction assay. The cells were seeded onto 96-well microplates (Nunc, TermoFisher Scientific, Waltham, MA, USA) at densities of 8000 cells per well (HepG2) and 7000 cells per well (MCF-7) in […] growth medium and incubated overnight to attach. The next day, the growth medium was replaced by the fresh complete growth medium containing appropriate concentrations of the compounds. […] Finally, the absorbance was measured at wavelength of 490 nm using a Microplate Reader (Synergy MX, BioTek, Winooski, VT, USA). […] Assay was performed at 5 concentrations of each compound; 2, 25, 50, 100 and 200 µM for compounds 1, 7 and 14 and 1, 12.5, 25, 50, 100 µM for compounds 9 and 10. […] Cell viability was determined by comparing the OD (optical density) of the wells containing the cells treated with investigated compounds with those of solvent control cells and presented as % of cell viability ± SD. Experiments were performed three times independently each time in at least three replicates. EC50 values were calculated by non-linear regression analysis using GraphPad Prism 7.0 Software. Statistical significance between treated groups and the control was determined by One-way analysis of variance and Dunnett's Multiple Comparison Test.

[4] = test system: HepG2 cells; experiment: MTS cytotoxicity assay, HepG2; format: cell-based, human; details: for effect on the tested cell lines: initial screening, 24 h, 100 µM for compound 6, 200 µM for 8 and 11, result in words; for EC50: Homo sapiens, interval in brackets
Excerpt: as §1, §2, §3

[5] = MCF7, read-out: EC50 [µM] MCF-7 (24h), 24h exposure
[6] = MCF7, 72h exposure, read-out: EC50 [µM] MCF-7 (72h)
[7] = HepG2, read-out: EC50 [µM] HepG2 (24h), 24h exposure
[8] = HepG2, 72h exposure, read-out: EC50 [µM] HepG2 (72h)

T1 sequence (P11388 whole entry): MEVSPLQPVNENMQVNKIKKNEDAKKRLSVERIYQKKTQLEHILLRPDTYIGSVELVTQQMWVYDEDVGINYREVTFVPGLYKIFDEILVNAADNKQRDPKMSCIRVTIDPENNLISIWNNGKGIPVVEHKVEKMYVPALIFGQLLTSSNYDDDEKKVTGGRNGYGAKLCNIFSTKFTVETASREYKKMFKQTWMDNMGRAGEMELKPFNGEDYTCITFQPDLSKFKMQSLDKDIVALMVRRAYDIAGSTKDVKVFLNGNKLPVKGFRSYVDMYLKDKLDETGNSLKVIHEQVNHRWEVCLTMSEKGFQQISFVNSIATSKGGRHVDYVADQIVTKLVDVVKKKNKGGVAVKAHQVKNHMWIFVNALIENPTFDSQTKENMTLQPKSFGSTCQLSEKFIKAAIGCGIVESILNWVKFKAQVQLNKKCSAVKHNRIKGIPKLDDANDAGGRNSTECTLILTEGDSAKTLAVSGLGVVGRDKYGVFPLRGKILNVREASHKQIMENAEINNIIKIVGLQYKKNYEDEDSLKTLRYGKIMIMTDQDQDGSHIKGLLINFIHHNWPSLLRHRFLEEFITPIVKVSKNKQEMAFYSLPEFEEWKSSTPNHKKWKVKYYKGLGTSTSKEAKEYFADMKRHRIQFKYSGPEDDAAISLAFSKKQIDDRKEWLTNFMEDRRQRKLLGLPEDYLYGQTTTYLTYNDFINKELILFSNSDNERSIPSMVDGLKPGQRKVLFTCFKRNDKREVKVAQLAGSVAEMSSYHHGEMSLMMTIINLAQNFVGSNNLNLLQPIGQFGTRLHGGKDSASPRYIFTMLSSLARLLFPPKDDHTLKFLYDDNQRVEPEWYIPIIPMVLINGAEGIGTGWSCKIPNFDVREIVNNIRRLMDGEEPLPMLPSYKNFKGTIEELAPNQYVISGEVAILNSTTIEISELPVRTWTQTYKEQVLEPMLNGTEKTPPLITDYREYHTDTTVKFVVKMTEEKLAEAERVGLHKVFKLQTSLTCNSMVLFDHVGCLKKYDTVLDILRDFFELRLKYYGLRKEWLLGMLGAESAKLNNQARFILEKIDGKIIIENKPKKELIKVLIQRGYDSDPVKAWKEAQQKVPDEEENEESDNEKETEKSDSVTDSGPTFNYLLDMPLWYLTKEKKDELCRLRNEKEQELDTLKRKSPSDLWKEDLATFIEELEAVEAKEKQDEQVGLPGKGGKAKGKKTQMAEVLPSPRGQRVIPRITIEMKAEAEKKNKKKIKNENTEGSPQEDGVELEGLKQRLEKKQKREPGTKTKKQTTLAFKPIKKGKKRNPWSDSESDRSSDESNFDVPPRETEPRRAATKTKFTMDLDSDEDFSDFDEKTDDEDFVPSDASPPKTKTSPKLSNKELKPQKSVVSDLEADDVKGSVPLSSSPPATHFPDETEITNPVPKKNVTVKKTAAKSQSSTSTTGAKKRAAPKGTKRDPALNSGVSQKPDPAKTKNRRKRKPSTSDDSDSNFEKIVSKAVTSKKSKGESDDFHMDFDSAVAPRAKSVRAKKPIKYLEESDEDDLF

With `CC(=O)c1ccc(Nc2nc(-c3sc(N)nc3C)cs2)cc1` [Compound 3, 1-(4-((2'-amino-4'-methyl-[4,5'-bithiazol]-2-yl)amino)phenyl)ethan-1-one] as the compound, how does the IC50 [1] read?
Its IC50 is 222 µM.

And the “solubility in the cell growth media” value [2]?
The value was “low solubility”.

Which IC50 [1] does the source give for `CC(=O)Nc1nc(C)c(-c2csc(Nc3ccc(O)cc3)n2)s1` [Compound 12, N-(2-((4-hydroxyphenyl)amino)-4'-methyl-[4,5'-bithiazol]-2'-yl)acetamide] here?
The IC50 was 193 µM.

Which IC50 [1] does the source give for `Cc1cc(NS(=O)(=O)c2ccc(Nc3nc(-c4sc(N)nc4C)cs3)cc2)no1` [Compound 4, 4-((2'-amino-4'-methyl-[4,5'-bithiazol]-2-yl)amino)-N-(5-methylisoxazol-3-yl)benzenesulfonamide] here?
Its IC50 is 30.1 µM.

For `CC(=O)Nc1nc(C)c(-c2csc(Nc3ccc(C(=O)O)cc3)n2)s1` [Compound 8, 4-((2'-acetamido-4'-methyl-[4,5'-bithiazol]-2-yl)amino)benzoic acid], which IC50 [1] is on record?
The IC50 was 120 µM.

And the “effect on the tested cell lines” value [3]?
The value was “little or no effect”.

And the “effect on the tested cell lines” value [4]?
Its value is “little or no effect”.

What does the source list for `CC(=O)Nc1nc(C)c(-c2csc(Nc3cccc(O)c3)n2)s1` [Compound 7, N-(2-((3-hydroxyphenyl)amino)-4'-methyl-[4,5'-bithiazol]-2'-yl)acetamide]?
IC50 [1]: 33.7 µM; EC50 [3, 5]: 12.3 µM; EC50 [3, 6]: 6.6 µM; EC50 [4, 7]: 45.6 µM; EC50 [4, 8]: 32.3 µM

Which IC50 [1] does the source give for `Cc1nc(NC(=O)c2ccccc2)sc1-c1csc(Nc2ccc(C(=O)O)cc2)n1` [Compound 15, 4-((2'-benzamido-4'-methyl-[4,5'-bithiazol]-2-yl)amino)benzoic acid] here?
The IC50 was 12.6 µM.

Which IC50 [1] does the source give for `CC(=O)Nc1nc(C)c(-c2csc(Nc3ccccc3)n2)s1` [Compound 14, N-(4'-methyl-2-(phenylamino)-[4,5'-bithiazol]-2'-yl)acetamide] here?
The IC50 was 357 µM.

And the EC50 [3, 5]?
Its EC50 is 32.3 µM.

And the EC50 [3, 6]?
Its EC50 is 7.5 µM.

What about the EC50 [4, 7] of the same compound?
The EC50 was 47.7 µM.

And the EC50 [4, 8]?
Its EC50 is 28.2 µM.

What does the source list for `COc1ccc(Nc2nc(-c3sc(NC(C)=O)nc3C)cs2)cc1` [Compound 10, N-(2-((4-methoxyphenyl)amino)-4'-methyl-[4,5'-bithiazol]-2'-yl)acetamide]?
IC50 [1]: 22.7 µM; EC50 [3, 5]: 16.4 µM; EC50 [3, 6]: 4.5 µM; EC50 [4, 7]: 34.7 µM; EC50 [4, 8]: 14.6 µM

For `CCC(=O)Nc1nc(C)c(-c2csc(Nc3ccc(C(=O)O)cc3)n2)s1` [Compound 13, 4-((4'-methyl-2'-propionamido-[4,5'-bithiazol]-2-yl)amino)benzoic acid], which IC50 [1] is on record?
Its IC50 is 123 µM.

With `CC(=O)Nc1nc(C)c(-c2csc(Nc3cccc(C(=O)O)c3)n2)s1` [Compound 11, 3-((2'-acetamido-4'-methyl-[4,5'-bithiazol]-2-yl)amino)benzoic acid] as the compound, how does the IC50 [1] read?
Its IC50 is 134 µM.

What about the “effect on the tested cell lines” value [3] of the same compound?
Its value is “little or no effect”.

And the “effect on the tested cell lines” value [4]?
Its value is “little or no effect”.

Which IC50 [1] does the source give for `Cc1nc(N)sc1-c1csc(Nc2ccc(S(N)(=O)=O)cc2)n1` [Compound 5, 4-((2'-amino-4'-methyl-[4,5'-bithiazol]-2-yl)amino)benzenesulfonamide] here?
The IC50 was 70.1 µM.

With `Cc1cc(O)ccc1Nc1nc(-c2sc(N)nc2C)cs1` [Compound 2, 4-((2'-amino-4'-methyl-[4,5'-bithiazol]-2-yl)amino)-3-methylphenol] as the compound, how does the IC50 [1] read?
The IC50 was 35.8 µM.

With `Cc1nc(N)sc1-c1csc(Nc2ccc(C(=O)O)c(O)c2)n1` [Compound 6, 4-((2'-amino-4'-methyl-[4,5'-bithiazol]-2-yl)amino)-2-hydroxybenzoic acid] as the compound, how does the IC50 [1] read?
The IC50 was 37.7 µM.

What about the “effect on the tested cell lines” value [3] of the same compound?
Its value is “little or no effect”.

And the “effect on the tested cell lines” value [4]?
Its value is “little or no effect”.
